The values that follow come from patent US11964938B2, “3-phenyl-4-hexynoic acid derivatives as GPR40 agonists” (CELON PHARMA S.A., priority 2018, dated 2024).

Structures can show the parent of a compound that is named as a salt.

Series [1] concerns diabetes STZ-treated mice. Briefly: Von Frey test on diabetes STZ-treated mice (tactile allodynia). It is filed as in vivo, mouse. The following applies: 60 minutes after administration, mean of group. The protocol:
Experiment B5: Von Frey Test on Diabetes STZ-Treated Mice.
Tactile allodynia was assessed by electronic von Frey apparatus (Bioseb) equipped with a flexible filament. Reaction to stimuli was assessed using growing applied pressure (from 0 to 10 g) on a plantar side of the hind foot of mice. Pregabalin was a control, as reference healthy mice with preserved normal response to the stimuli were used. In the day of the experiment, mice were placed separately in cages with a wire mesh bottom for 1 h for habituation to experimental conditions. After habituation period, each mouse was treated 3 times alternately, with 30 s intervals between each measurement, to obtain starting values (before administration of the compound) of pain sensitivity. […] The results are presented in Table 7 as mean value for all mice in a given group (n=7-10).

The target of the next series is T1, human GPR40 receptor (Homo sapiens, UniProt O14842).
T1 construct: host or cells: CHO-K1 (co-expressing aequorin)
Description: Analysis of receptor activation - calcium ions concentration measurement (aequorin luminescence). The following applies: enhancement or decrease of activity in relation to reference TAK-875, from EC50 values. The series is classed as cell-based. From the text:
Experiment B1: Analysis of Receptor Activation—Calcium Ions Concentration Measurement.
As a result of the measurement, luminescence change in the time curve were obtained, the integration of which allowed to calculate the relative amount of calcium ions released to cytosol. […] Curves plotted from obtained results allowed to determine EC50 values.

Series [2] deals with MIN6 (mouse insulinoma) cells. Description: Glucose-dependent insulin release in mouse insulinoma cells (MIN6). It is filed as cell-based. The following applies: multiplicity of insulin efflux increase in relation to control; 10 uM compound, 20 mM glucose, 1 hour. The procedure:
Experiment B2: Glucose-Dependent Insulin Release in Mouse Insulinoma Cells (MIN6).
MIN6 (mouse insulinoma) cells were seeded on a plate covered with PDL (poly-D-lysine) at 5×10^5/well and cultured for 48 hours. […] Tested compounds, after dilution to the concentration of 10-40 uM in KRBH buffer with the addition of 20 mM glucose, were added to the cells and incubated for 1 hour to induce insulin release. Negative control was KRBH buffer with the addition of 2 mM glucose. Concentration of released insulin was determined using ELISA test (Mercodia).
Table 4 present MIN6Insulin @10 uM values for representative compounds of the invention. MIN6Insulin @10 uM value is a multiplicity of insulin efflux increase in relation to control experiment, following addition of 10 uM of tested compound.

Series [3] has as its system Wistar HAN Crl:WI (HAN) rats. Description: Glucose tolerance test in vivo on rats. More on the design: species or system rat. The following applies: 10 mg/kg oral single dose, blood. The procedure: Experiment B3: Glucose Tolerance Test In Vivo on Rats.
To evaluate glucose lowering effect of the compounds in in vivo study, glucose tolerance test (GTT) was performed. The study was performed on male outbred Wistar HAN Crl:WI (HAN) rats from Charles River, weight about 250-300 g, 8-10 weeks old. Rats were starved for 12 hours (with free access to water).
At time point t=0 animals were given orally a single dose of a compound (by a gastric tube) and immediately (t=0) and after 6 hour (t=6 h) intraperitoneal (i.p.) glucose bolus ([…]). At time points t=0 (just before oral administration of the compounds and intraperitoneal glucose administration), 0.25, 0.5, 1, 2, 2.5, 3, 6, 6.25, 7, 8, and 9 h blood samples from tail vein were collected from each animal for glucose level determination using Accu-chek glucometer (Roche Diagnostics) and additionally at t=0.25, 0.5, 1, 2, 2.5, and 3 h blood samples from tail vein were collected for insulin level measurement using ELISA test (Mercodia).
Tested compound were prepared in 5% DMSO/40% PEG300/55% PBS vehicle and administered at the dose of 10 mg/kg body weight in a volume of 0.5 ml/100 g body weight. After 4 hours after tested compound administration animals were given standard diet to the cages. Decrease of AUC value for glucose level in blood was calculated and the results for selected compounds of the invention are presented in Table 5. Analysis was performed using GraphPad prism software.

In another series the test system is type 2 diabetes patients. The following applies: cited from earlier work.

T1 sequence (O14842 whole entry): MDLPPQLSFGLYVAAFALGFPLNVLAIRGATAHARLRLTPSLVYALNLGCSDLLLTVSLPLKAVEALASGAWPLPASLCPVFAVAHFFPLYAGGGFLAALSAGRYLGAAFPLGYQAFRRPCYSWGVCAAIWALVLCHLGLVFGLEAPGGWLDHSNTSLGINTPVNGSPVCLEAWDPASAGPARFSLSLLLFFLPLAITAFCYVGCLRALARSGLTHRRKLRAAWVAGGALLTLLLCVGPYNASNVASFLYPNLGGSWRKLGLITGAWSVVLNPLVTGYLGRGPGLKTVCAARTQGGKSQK

For the compound `CC#C[C@@H](CC(=O)O)c1ccc(OCC(C)=C(C)C)cc1` [Example S1, (3S)-3-{4-[(2,3-dimethylbut-2-en-1-yl)oxy]phenyl}hex-4-ynoic acid calcium salt], the “Applied pressure causing the response, sick animal (neuropathic) after compound administration” value in series [1] (3 mg/kg p.o.) stood at 1.85 g; in series [1] (10 mg/kg p.o.), 2.34 g; in series [1] (30 mg/kg p.o.), 3.36 g.
With `Cc1cc(OCCCS(C)(=O)=O)cc(C)c1-c1cccc(COc2ccc3c(c2)OC[C@H]3CC(=O)O)c1` [Example R1, 2[(3S)-6-({3-[4-(3-methanesulfonylpropoxy)-2,6-dimethylphenyl]-phenyl}methoxy)-2,3-dihydro-1-benzofuran-3-yl]acetic acid, reference compound], the “% PTAK-875” value at human GPR40 receptor was “B (81-120% PTAK-875)”. The “MIN6Insulin @10 uM” value in series [2] was found to be 1.336. Further, the “AUC for glucose (0-540 min.)” value in series [3] (i.p. glucose bolus at t=0 and 6 h) was found to be 30950.6. In addition, in series [3] (i.p. glucose bolus), the “AUC for insulin (0-180 min.)” value was 210.5. In the series on type 2 diabetes patients (clinical development, associated with inhibition of bile acids transport), the side effects result is recorded as “side effects on the liver”. Further, the glucose levels result in the series with type 2 diabetes patients (phase 3 clinical trials, type 2 diabetes patients) is reported as “ability to reduce glucose levels”.
